Data as given in US5922748A, “Indole derivatives as 5-HT agonists” (Glaxo Wellcome Inc., priority 1994, dated 1999).
Read-outs that look alike come from different tables or passages of the source. Blank lines part the entries; values can stand above or below the compound they belong to.

Experiments:
[1] = target: T1, "5-HT1 -like" receptor mediating smooth muscle contraction (Oryctolagus cuniculus, UniProt P49144); test: Rabbit Saphenous Vein Assay (contraction of isolated ring segments); assay type: cell-based, male New Zealand White Rabbits; details: antagonism, given where compounds were found to be antagonists
T1 construct: Right and left lateral saphenous veins were obtained from male New Zealand White Rabbits; from tissue; host or cells: rabbit lateral saphenous vein ring segments
T1 sequence (P49144 whole entry): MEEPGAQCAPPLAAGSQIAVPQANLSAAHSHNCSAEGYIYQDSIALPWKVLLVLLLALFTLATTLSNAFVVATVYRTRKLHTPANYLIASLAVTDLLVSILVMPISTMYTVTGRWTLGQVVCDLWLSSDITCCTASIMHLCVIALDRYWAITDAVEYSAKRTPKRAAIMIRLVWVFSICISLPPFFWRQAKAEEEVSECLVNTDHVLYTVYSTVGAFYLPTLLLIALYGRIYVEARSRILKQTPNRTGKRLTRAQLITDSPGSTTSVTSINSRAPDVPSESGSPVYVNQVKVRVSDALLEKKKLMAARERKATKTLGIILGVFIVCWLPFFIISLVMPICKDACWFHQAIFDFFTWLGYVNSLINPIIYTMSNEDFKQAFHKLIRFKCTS

[2] = target: T1, "5-HT1 -like" receptor mediating smooth muscle contraction; test: as above; assay type: cell-based, male New Zealand White Rabbits; details: for Emax: read-out: (α)
Description: A: Rabbit Saphenous Vein Assay
Compounds of formula (I) prepared in Synthetic Examples 1 to 17 were each tested for their activity as agonists […] for the "5-HT1 -like" receptor mediating smooth muscle contraction by the following method.
[…]. Cocaine (30 μM) was present in the Krebs' solution throughout the experiment to prevent the uptake of amines by sympathetic neurones. The Krebs' solution was maintained at 37° C. and continually gassed with 95% oxygen/5% carbon dioxide. Increases in tissue isometric force were measure using Grass FT03C force displacement transducers and recorded on a Gould BD-212 pen recorder.
A force of 1.0 g was applied to each preparation and re-established twice during a subsequent period of 30 minutes.
Agonist activity was assessed by […] additions of the test compound, its concentration being increased in 0.5 log10 unit increments until further additions caused no further change in tissue force. In each experiment, the activity of the test compound was compared to the activity of 5-HT.

"5-HT1 -like" receptor = target: T2, "5-HT1 -like" receptor (Bos taurus, UniProt F1MGM3); test: Calf Caudate Assay (competition binding with [3H]-5HT, calf caudate nucleus membranes); details: 3.5 nM [3H]-5HT with 15 μM mesulergine and 15 μM 8-OH-DPAT, text says pIC50 converted by Cheng-Prusoff
T2 construct: Membranes were prepared from homogenates of calf caudate nucleus; from tissue; host or cells: calf caudate nucleus membranes

[3] = agonism, rabbit saphenous vein rings, 37° C., pH 7.4, compared to 5-HT, read-out: pA50 (converted)
[4] = value in parentheses after pA50 in Table 1, rabbit saphenous vein, compared to 5-HT

T2 sequence (F1MGM3 1-403): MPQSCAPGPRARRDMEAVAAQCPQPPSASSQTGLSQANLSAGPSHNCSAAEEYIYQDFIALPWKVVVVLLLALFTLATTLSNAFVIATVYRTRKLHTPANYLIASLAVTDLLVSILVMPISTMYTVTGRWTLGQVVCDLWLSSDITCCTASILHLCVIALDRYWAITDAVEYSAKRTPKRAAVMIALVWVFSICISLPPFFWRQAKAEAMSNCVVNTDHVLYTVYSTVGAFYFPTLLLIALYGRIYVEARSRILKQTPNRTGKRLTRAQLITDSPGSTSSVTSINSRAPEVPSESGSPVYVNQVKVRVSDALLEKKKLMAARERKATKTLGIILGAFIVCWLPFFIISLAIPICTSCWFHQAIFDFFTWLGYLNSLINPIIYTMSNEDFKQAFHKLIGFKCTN

Compound: 4-[3-(trans-3dimethylaminocyclobut-1-ylmethyl)-1H-indol-5-ylmethyl]-(4S)oxazolidin-2-one [Example 19]
pKb [1]: 5.73

EC50 [2, 3]: 3630 nM
Emax [2, 4]: 16%
Compound: CN(C)[C@H]1C[C@H](c2c[nH]c3ccc(CC4CNC(=O)O4)cc32)C1 (single isomer, unassigned; (+)) [Example 21, (+)-5-[3-trans-3-dimethylaminocyclobutyl-1H-indol-5-lmethyl]oxazolidin-2-one]

Compound: N[C@H]1C[C@@H](c2c[nH]c3ccc(C[C@H]4COC(=O)N4)cc32)C1 [Example 1 (cis), 4-[3-(cis-3-aminocyclobutyl)-5-indolymethyl]-(4S)-oxazolidin-2-one acetate]
EC50 [2, 3]: 1580 nM
Emax ([2]; rabbit): 76%

Compound: N[C@H]1C[C@H](c2c[nH]c3ccc(C[C@H]4COC(=O)N4)cc32)C1 [Example 1 (trans), 4-[3-(trans-3-aminocyclobutyl)-5-indolylmethyl)-(4S)-oxazolidin-2-one acetate]
EC50 [2]: 380 nM
Emax ([2]; rabbit): 78%

Compound: N[C@H]1C[C@H](c2c[nH]c3ccc(C[C@H]4COC(=O)N4)cc32)C1 [Example 1, 4-[3-(trans-3-aminocyclobutyl)-5-indolylmethyl)-(4S)-oxazolidin-2-one]
Activity P[A50 ] ("5-HT1 -like" receptor): 7.8

Kb [1]: 1910 nM
Compound: CN(C)[C@H]1C[C@H](c2c[nH]c3ccc(CCN4C(=O)CNC4=O)cc32)C1 [Example 3]

EC50 [2, 3]: 1910 nM
Emax [2, 4]: 9%
Compound: CN(C)[C@H]1C[C@H](c2c[nH]c3ccc(C[C@H]4COC(=O)N4)cc32)C1 [Example 4, 4-[3-(trans-3-dimethylaminocyclobutyl)-1H-indol-5-ylmethyl]-(4S)oxazolidin-2-one]

Kb [1]: 891 nM
Compound: CN(C)[C@H]1C[C@H](c2c[nH]c3ccc(CCN4C(=O)NC(C)(C)C4=O)cc32)C1 [Example 5]

Kb [1]: 2690 nM
Compound: CC1(C)NC(=O)N(CCc2ccc3[nH]cc([C@H]4C[C@H](N)C4)c3c2)C1=O [Example 6, 3-{2-[3-(trans-3-aminocyclobutyl)-1H-indol-5-yl]ethyl}-5,5-dimethylimidazolidin-2,4-dione]

Kb [1]: 170 nM
Compound: CN(C)[C@H]1C[C@H](c2c[nH]c3ccc(CCN4C(=O)c5ccccc5C4=O)cc32)C1 [Example 7]

pKb [1]: 7.18
Compound: CN(C)[C@H]1C[C@H](c2c[nH]c3ccc(CCN4C(=O)CC5(CCCCC5)CC4=O)cc32)C1 [Example 8, 3-{2-[3-(trans-3-dimethylaminocyclobutyl)-1H-indol-5-yl]ethyl}-3-azaspiro[5,5]undecane-2,4-dione]

Kb [1]: 9330 nM
Compound: CN(C)[C@H]1C[C@H](c2c[nH]c3ccc(CN4C(=O)CNC4=O)cc32)C1 [Example 9, 3-[3-(trans-3-dimethylaminocyclobutyl)-1H-indol-5-ylmethyl]imidazolidin-2,4-dione]

Compound: CNS(=O)(=O)Cc1ccc2[nH]cc([C@H]3C[C@H](N(C)C)C3)c2c1 [Example 10, N-methyl-[3-(trans-3-dimethylaminocyclobutyl)-1H-indol-5-yl]methanesulphonamide]
Kb [2]: 5620 nM

Kb [1]: 11200 nM
Compound: CN(C)[C@H]1C[C@H](c2c[nH]c3ccc(C[C@@H]4COC(=O)N4)cc32)C1 [Example 11, 4-[3-(trans-3-dimethylaminocyclobutyl)-1H-indol-5-ylmethyl]-(4R)oxazolidin-2-one]

Kb [1]: 589 nM
Compound: CN(C)[C@H]1C[C@H](c2c[nH]c3ccc(CN4C(=O)NC(C)(C)C4=O)cc32)C1 [Example 12, 5,5-dimethyl-3-[3-(trans-3-dimethylaminocyclobutyl)-1H-indol-5-ylmethyl]imidazolidin-2,4-dione]

EC50 [2, 3]: 14100 nM
Emax [2, 4]: 38%
Compound: CN1C(=O)OC[C@H]1Cc1ccc2[nH]cc([C@H]3C[C@H](N(C)C)C3)c2c1 [Example 13, 4-[3-(trans-3-dimethylaminocyclobutyl)-1H-indol-5-ylmethyl]-3-methyl(4R)oxazolidin-2-one]

Compound: CN(C)[C@H]1C[C@H](c2c[nH]c3ccc(C(N)=O)cc32)C1 [Example 14, 5-carboxamido-3-(trans-3-dimethylaminocyclobutyl)-1H-indole]
EC50 [2]: 562 nM
Emax ([2]; rabbit): 52%

EC50 [2, 3]: 7080 nM
Emax [2, 4]: 29%
Compound: CN(C)[C@H]1C[C@@H](c2c[nH]c3ccc(C[C@H]4COC(=O)N4)cc32)C1 [Example 15]

Compound: N[C@H]1C[C@H](c2c[nH]c3ccc(Oc4ccccc4)cc32)C1 [Example 16, 5-phenoxy-3-(trans-3-aminocyclobutyl)-1H-indole]
Kb [2]: > 316 nM

Compound: CN(C)[C@H]1C[C@H](c2c[nH]c3ccc(Oc4ccccc4)cc32)C1 [Example 17, 5-phenoxy-3-(trans-3-dimethylaminocyclobutyl)-1H-indole]
Kb [2]: 240 nM

Compound: Cc1noc(-c2ccc3[nH]cc([C@H]4C[C@H](N(C)C)C4)c3c2)n1 [Example 18, 3-methyl-5-[3-(trans-3-dimethylaminocyclobutyl)indol-5-yl]-1,2,4-oxadiazole]
Kb [2]: 955 nM

Compound: CN[C@H]1C[C@H](c2c[nH]c3ccc(C[C@H]4COC(=O)N4)cc32)C1 [Example 22, 4-[3-(trans-3-methylaminocyclobutyl)-1H-indol-5-ylmethyl]-(4S) oxazolidin-2-one]
EC50 [2, 3]: 708 nM
Emax [2, 4]: 72%

Kb [1]: 1260 nM
Compound: CN(C)[C@H]1C[C@H](c2c[nH]c3ccc(C(=O)NCc4ccccc4)cc32)C1 [Example 23]

EC50 [2, 3]: 6170 nM
Emax [2, 4]: 48%
Compound: CN(C)[C@H]1C[C@H](c2c[nH]c3ccc(CCN4C(=O)c5ccccc5C4=O)cc32)C1 [Example 24, 2-{2-[3-(trans-3-dimethylaminocyclobutyl)-1H-indol-5-yl]ethyl} phthalamide]

Compound: CN(C)[C@H]1C[C@H](c2c[nH]c3ccc(CC(N)=O)cc32)C1 [Example 25, 3-[trans-3-dimethylaminocyclobutyl]-1H-indol-5-yl acetamide]
Kb [2]: 16600 nM

Kb [1]: 3890 nM
Compound: CN(C)[C@H]1C[C@H](c2c[nH]c3ccc(CC(=O)NCc4ccccc4)cc32)C1 [Example 26, N-benzyl-3-[trans-3-dimethylaminocyclobutyl]-1H-indol-5-yl acetamide]

Kb [1]: 759000 nM
Compound: Cc1noc(Cc2ccc3[nH]cc([C@H]4C[C@H](N(C)C)C4)c3c2)n1 [Example 27, 3-methyl-5-[3-(trans-3-dimethylaminocyclobutyl)-1H-indol-5-ylmethyl] 1,2,4-oxadiazole]

Kb [1]: 6610 nM
Compound: Cc1nc(Cc2ccc3[nH]cc([C@H]4C[C@H](N(C)C)C4)c3c2)n[nH]1 [Example 28, 3-methyl-5-[3-(trans-3-dimethylaminocyclobutyl)-1H-indol-5-ylmethl]1,2,4-triazole]
